The values below come from patent US6437153B1, “Process for preparing 3-(1-hydroxyphenyl-1-alkoximinomethyl)dioxazines” (Bayer Aktiengesellschaft, priority 1996, dated 2002).

Structures are written as SMILES. Like-named read-outs stand apart in the source and are kept apart here.

The data set can be described thus: logP determined by HPLC. In kind it is physicochemical.
Setting [1] is: preparation examples, where two values are given they are the stereoisomers of the product mixture, read-out: HPLC: logP.
Where [2] appears, read: preparation examples, where two values are given they are the stereoisomers of the product mixture.

`CON=C1COc2ccc(C)cc21` [(VI-2), 5-Methylbenzofuran-3-one O-methyl-oxime]: the chromatographic logP under setting [1] came out at 2.88.

As for `CO/N=C(/C1=NOCCO1)c1ccccc1O` [Compound (I-1), E-(5,6-dihydro-[1,4,2]dioxazin-3-yl)-(2-hydroxy-phenyl)-methanone O-methyl-oxime], the chromatographic logP (E isomer, Example 2 product, read-out: HPLC: logP (E isomer)) was 1.24 and the chromatographic logP (HPLC, preparation examples, where two values are given they are the stereoisomers of the product mixture, read-out: HPLC: logP) was 1.22.

Turning to `CON=C1C(=NOCCO)Oc2ccccc21` [Compound (II-1), benzofuran-2,3-dione 2-[O-(2-hydroxy-ethyl)-oxime]3-(O-methyl-oxime)], the “HPLC: logP” value under setting [2] turned out to be 1.79. Further, the chromatographic logP under setting [1] amounted to 1.65.

Regarding `CON=C1C(=NO)Oc2ccccc21` [Compound (III-1), benzofuran-2,3-dione 3-(O-methyl-oxime) 2-oxime], the “HPLC: logP” value under setting [2] was 1.72. Besides, the chromatographic logP under setting [1] stood at 1.56.

With `CON=C(C[N+](=O)[O-])c1ccccc1O` [Compound (V-1), 1-(2-hydroxyphenyl)-2-nitro-ethanone O-methyl-oxime], the chromatographic logP under setting [1] was found to be 1.87.
